Read-outs that look alike come from different tables or passages of the source.
Key:
[1] = Trypan Blue viability of the single cell suspension, liver; type: in vivo, rat; details: rat, inhaled
Procedure: (§1) The organ parts (see above) were washed in mincing buffer (50 mM EDTA in HBSS [without Ca^2+ and Mg^2+] pH 7.5: DMSO 9:1 (v/v), the latter added shortly before use, stored at 4 °C), cut into 1 to 2-mm pieces in ice-cold mincing buffer and transferred to a cell sieve with 70-µm pores. The viability of the cell suspension was evaluated by the Trypan Blue Assay (Strober [2001]).

rat liver cells = experiment: as above; type: in vivo; details: liver, 5 days, individual animals
Procedure: as §1

[2] = design: method as in ToxCast (comptox.epa.gov dashboard); details: ref ToxCast (comptox.epa.gov dashboard); cited from earlier work
[3] = system: polychromatic erythrocytes of rat bone marrow; experiment: Micronucleus test in rat bone marrow (OECD 474); details: for MN/ 1000 PCE Mean ± SD / MN/ 1000 PCE Range / PCE/1000 Erythrozyten Mean ± SD / PCE/NCE quotient (%): 5 days
Procedure: 13-mm filter disks with a pore size of 8 µm were placed on the bottom of 5-mL plastic syringes. Approximately 500 mg of a mixture consisting of equal parts microcrystalline cellulose (Sigmacell®, Typ 50) and alpha-cellulose fibers was added up to the 2-mL mark.
Bone marrow preparation was performed according to published methods (Romagna and Staniforth [1989]; Salamone et al. [1980]). The soft tissue was removed from the femora and the epiphyses were cut off. The bone marrow was rinsed off the diaphyses with approximately 3 mL 37 °C-warm fetal calf serum (FCS) (Biochrom, Berlin, Germany) per femur, placed on the above-described cellulose column and eluted with 3 mL of Hank's Balanced Salt Solution (HBSS) (Biochrom, Berlin, Germany) (with Ca^2+ und Mg^2+). The eluate was centrifuged at 300 g for 5 min and the pellet was suspended in […] FCS. From this suspension three portions per femur were individually placed on slides, air-dried and then stained for 4 min in May-Grunwald solution 1 (Merck, Darmstadt, Germany), followed by 4 min in May–Grunwald solution 2 (May-Grunwald solution 1 diluted 1:1 with aqua bidest.), rinsed in aqua bidest and then stained with Giemsa solution (7.5% dilution derived from Giemsa obtained from Merck, Darmstadt, Germany) for 15 min. Subsequently, the slides were washed twice with aqua bidest, then dried, cleared in xylene and covered with Corbit-Balsam (I. Hecht, Kiel-Hasse, Germany).
2000 polychromatic erythrocytes (PCE) per animal (1000 per slide) were evaluated at 1000-fold magnification under immersion oil for the presence/absence of large and small micronuclei as well as the proportion of PCE among the total erythrocytes. Statistical significance of differences between treated versus untreated groups was evaluated by the one-sided Wilcoxon test (using the program MUKERN). The result is regarded as positive when the following criteria are fulfilled: 1.
2000 PCEs were analyzed for micronuclei per animal.

CYP1A = experiment: EROD inhibition control in Aroclor 1254-induced rat liver microsomes; type: biochemical; details: for EROD enzyme activity: 0 µM control 821.5 ± 54.9
Procedure: For determination of the enzyme activities in triplicates, 85 µL master mix (100 mM TrisHCl pH 7.5, 2 mM 5’AMP, 5 mM G-6-P, 10 U G-6-P-DH, 10 mM Dicumarol, 10 mM MgCl2, either 2 µM EROD or 10 µM PROD or 5 µM BROD) was added to 10 µL microsomal fraction (1 mg protein/mL). The reaction was started by the addition of 5 µL 2 mM NADPH (dissolved in 100 mM TrisHCl pH 7.5) followed by incubation at 37 °C for 16 min. The activity was determined by measuring the increase of the fluorescence (excitation at 550 nm, emission at 585 nm) due to resorufin formation compared with resorufin standards, which had been prepared by dissolving tenfold concentrated solutions in DMSO, which were then diluted tenfold in 100 mM TrisHCl pH 7.5.
As a method control the described AROD assay was performed with microsomal fractions derived from liver and lung of male Wistar rats which had been treated i.p. for 5 days with aroclor 1254 (500 mg/kg bw). These control assays were performed in presence of 1 μM, 10 μM or 100 μM NVP, respectively, in order to check for potential interactions of NVP with the substrate turnover in the AROD assay.

[4] = system: palmitoyl CoA oxidase/acyl CoA oxidase; experiment: Cyanide-insensitive palmitoyl-CoA oxidase assay, liver cytosol (PPARα marker); type: in vivo, rat; details: male rats
Procedure: Cyanide-insensitive palmitoyl-CoA oxidase was determined essentially according to the method by Lazarow ([1981]), specifically as follows:
Five µL of the liver cytosol (prepared as described in the preceding chapter “Aryl hydrocarbon receptor”) derived from the NVP-treated (and untreated control) male rats were mixed in a centrifugal analyzer Cobas Fara II (Hoffmann La Roche) with 250 µL reaction mixture consisting of 28.2 mL 50 mM Tris buffer pH 8.01, 150 µL 2% Triton-X-100, 300 µL 1 mM FAD, 300 µL 10 mM CoA, 150 µL 1.5% BSA, 90 µL 0.33 mM dithiothreitol, 300 µL 20 mM NAD and after homogenization 300 µL 100 mM KCN. The reaction was started by adding 5 µL of 5.03 µM palmitoyl-CoA aqueous solution. The increase of the absorption at ʎ = 334 nm due to NADH formation was determined and translated to palmitoyl-CoA oxidase U/L by the Cobas Fara II software.

rat hepatocytes = experiment: MTT assay in cultivated rat hepatocytes; type: cell-based; details: up to 1000 µM
BALB/3T3 cells = system: BALB/3T3 cells; design: method as in MAK [1994]; details: ref MAK [1994]; cited from earlier work
rat lung cells = experiment: Trypan Blue viability of the single cell suspension, lung; type: in vivo; details: lung, 5 days, individual animals
Procedure: as §1

[5] = male, no FPG, 10 ppm inhalation

C=CN1CCCC1=O [NVP, N-vinylpyrrolidone]
viability at 5 days ([1]; both sexes, Wistar Crl:WI (Han), liver and lung single cell suspensions, either of the two organs (liver, lung) after NVP treatment, read-out: Viability (dye exclusion test)): > 90% | viability at 5 days ([1]; both sexes, Wistar Crl:WI (Han), liver single cell suspension, liver cells, NVP-exposed, read-out: Viability, range of the individual animals): 90 to 99% | viability at 5 days ([1]; female, Wistar, liver, 5 ppm, liver, female, Comet with FPG (Table 9), 5 ppm inhalation, 5 days, individual animals, read-out: Individual viability (%)): 99% | viability at 5 days ([1]; female, Wistar, liver, 5 ppm, liver, female, Comet with FPG (Table 9), 5 ppm inhalation, 5 days, read-out: Viability (%) (mean ± SD)): 99 ± 1% | viability at 5 days ([1]; female, Wistar, liver, 5 ppm, liver, female, no FPG, 5 ppm inhalation, 5 days, individual animals, read-out: Individual viability (%)): 98% | viability at 5 days ([1]; female, Wistar, liver, 5 ppm, liver, female, no FPG, 5 ppm inhalation, 5 days, read-out: Viability (%) (mean ± SD)): 97 ± 1% | viability at 5 days ([1]; female, Wistar, liver, 10 ppm, liver, female, Comet with FPG (Table 9), 10 ppm inhalation, 5 days, individual animals, read-out: Individual viability (%)): 98% | viability at 5 days ([1]; female, Wistar, liver, 10 ppm, liver, female, Comet with FPG (Table 9), 10 ppm inhalation, 5 days, read-out: Viability (%) (mean ± SD)): 98 ± 1% | viability at 5 days ([1]; female, Wistar, liver, 10 ppm, liver, female, no FPG, 10 ppm inhalation, 5 days, individual animals, read-out: Individual viability (%)): 96% | viability at 5 days ([1]; female, Wistar, liver, 10 ppm, liver, female, no FPG, 10 ppm inhalation, 5 days, read-out: Viability (%) (mean ± SD)): 96 ± 1% | viability at 5 days ([1]; female, Wistar, liver, 20 ppm, liver, female, Comet with FPG (Table 9), 20 ppm inhalation, 5 days, individual animals, read-out: Individual viability (%)): 98% | viability at 5 days ([1]; female, Wistar, liver, 20 ppm, liver, female, Comet with FPG (Table 9), 20 ppm inhalation, 5 days, read-out: Viability (%) (mean ± SD)): 98 ± 1% | viability at 5 days ([1]; female, Wistar, liver, 20 ppm, liver, female, no FPG, 20 ppm inhalation, 5 days, individual animals, read-out: Individual viability (%)): 96% | viability at 5 days ([1]; female, Wistar, liver, 20 ppm, liver, female, no FPG, 20 ppm inhalation, 5 days, read-out: Viability (%) (mean ± SD)): 97 ± 1% | viability at 5 days ([1]; male, Wistar, liver, 5 ppm, liver, male, Comet with FPG (Table 8), 5 ppm inhalation, 5 days, individual animals, read-out: Individual viability (%)): 97% | viability at 5 days ([1]; male, Wistar, liver, 5 ppm, liver, male, Comet with FPG (Table 8), 5 ppm inhalation, 5 days, read-out: Viability (%) (mean ± SD)): 98 ± 1% | viability at 5 days ([1]; male, Wistar, liver, 5 ppm, liver, male, no FPG, 5 ppm inhalation, 5 days, individual animals, read-out: Individual viability (%)): 92% | viability at 5 days ([1]; male, Wistar, liver, 5 ppm, liver, male, no FPG, 5 ppm inhalation, 5 days, read-out: Viability (%) (mean ± SD)): 95 ± 3% | viability at 5 days ([1]; male, Wistar, liver, 10 ppm, liver, male, Comet with FPG (Table 8), 10 ppm inhalation, 5 days, individual animals, read-out: Individual viability (%)): 99% | viability at 5 days ([1]; male, Wistar, liver, 10 ppm, liver, male, Comet with FPG (Table 8), 10 ppm inhalation, 5 days, read-out: Viability (%) (mean ± SD)): 98 ± 2% | viability at 5 days ([1]; male, Wistar, liver, 10 ppm, liver, male, no FPG, 10 ppm inhalation, 5 days, individual animals, read-out: Individual viability (%)): 96% | viability at 5 days ([1]; male, Wistar, liver, 10 ppm, liver, male, no FPG, 10 ppm inhalation, 5 days, read-out: Viability (%) (mean ± SD)): 96 ± 1% | viability at 5 days ([1]; male, Wistar, liver, 20 ppm, liver, male, Comet with FPG (Table 8), 20 ppm inhalation, 5 days, individual animals, read-out: Individual viability (%)): 100% | viability at 5 days ([1]; male, Wistar, liver, 20 ppm, liver, male, Comet with FPG (Table 8), 20 ppm inhalation, 5 days, read-out: Viability (%) (mean ± SD)): 99 ± 1% | viability at 5 days ([1]; male, Wistar, liver, 20 ppm, liver, male, no FPG, 20 ppm inhalation, 5 days, individual animals, read-out: Individual viability (%)): 98% | viability at 5 days ([1]; male, Wistar, liver, 20 ppm, liver, male, no FPG, 20 ppm inhalation, 5 days, read-out: Viability (%) (mean ± SD)): 97 ± 1% | Individual viability (%) (rat liver cells; female, no FPG, 10 ppm inhalation): 94% | Individual viability (%) (rat liver cells; male, Comet with FPG (Table 8), 10 ppm inhalation): 93% | Individual viability (%) (rat liver cells; male, no FPG, 5 ppm inhalation): 90% | Individual viability (%) (rat liver cells; [5]): 94% | Active in vitro assays in ToxCast [2]: 10 out of 847 | Mean number of micronuclei in PCE, range over groups ([3]; 5, 10, 20 ppm, male and female rats): 1.4 to 2.9 ‰ | MN/ 1000 PCE Mean ± SD ([3]; 5 ppm inhalation, female): 1.4 ± 0.7 MN/ 1000 PCE | MN/ 1000 PCE Range ([3]; 5 ppm inhalation, female): 0.5–2.5 MN/ 1000 PCE | PCE/1000 Erythrozyten Mean ± SD ([3]; 5 ppm inhalation, female): 629 ± 18 PCE/1000 Erythrozyten | PCE/NCE quotient (%) ([3]; 5 ppm inhalation, female): 99% | MN/ 1000 PCE Mean ± SD ([3]; 5 ppm inhalation, male): 2.6 ± 0.9 MN/ 1000 PCE | MN/ 1000 PCE Range ([3]; 5 ppm inhalation, male): 1.5–4.0 MN/ 1000 PCE | PCE/1000 Erythrozyten Mean ± SD ([3]; 5 ppm inhalation, male): 609 ± 40 PCE/1000 Erythrozyten | PCE/NCE quotient (%) ([3]; 5 ppm inhalation, male): 100% | Increase in micronuclei in the PCE ([3]; 5 ppm, 10 ppm or 20 ppm): no significant increase | MN/ 1000 PCE Mean ± SD ([3]; 10 ppm inhalation, female): 1.7 ± 1.0 MN/ 1000 PCE | MN/ 1000 PCE Range ([3]; 10 ppm inhalation, female): 0.5–3.0 MN/ 1000 PCE | PCE/1000 Erythrozyten Mean ± SD ([3]; 10 ppm inhalation, female): 612 ± 44 PCE/1000 Erythrozyten | PCE/NCE quotient (%) ([3]; 10 ppm inhalation, female): 96% | MN/ 1000 PCE Mean ± SD ([3]; 10 ppm inhalation, male): 2.9 ± 1.9 MN/ 1000 PCE | MN/ 1000 PCE Range ([3]; 10 ppm inhalation, male): 1.5–6.5 MN/ 1000 PCE | PCE/1000 Erythrozyten Mean ± SD ([3]; 10 ppm inhalation, male): 622 ± 33 PCE/1000 Erythrozyten | PCE/NCE quotient (%) ([3]; 10 ppm inhalation, male): 102% | MN/ 1000 PCE Mean ± SD ([3]; 20 ppm inhalation, female): 2.3 ± 0.8 MN/ 1000 PCE | MN/ 1000 PCE Range ([3]; 20 ppm inhalation, female): 1.0–3.0 MN/ 1000 PCE | PCE/1000 Erythrozyten Mean ± SD ([3]; 20 ppm inhalation, female): 615 ± 48 PCE/1000 Erythrozyten | PCE/NCE quotient (%) ([3]; 20 ppm inhalation, female): 97% | MN/ 1000 PCE Mean ± SD ([3]; 20 ppm inhalation, male): 2.0 ± 0.9 MN/ 1000 PCE | MN/ 1000 PCE Range ([3]; 20 ppm inhalation, male): 0.5–3.0 MN/ 1000 PCE | PCE/1000 Erythrozyten Mean ± SD ([3]; 20 ppm inhalation, male): 553 ± 57 PCE/1000 Erythrozyten | PCE/NCE quotient (%) ([3]; 20 ppm inhalation, male): 90% | Micronuclei in normochromatic erythrocytes (NCE) ([3]; after exposure to NVP): no micronuclei were observed | Decrease of the ratio of PCE to NCE ([3]; high-dose (20 ppm) males vs vehicle control): 10% | EROD enzyme activity (CYP1A; 1 µM NVP): 859.9 ± 14.1 pmol/min/mg protein | EROD enzyme activity (CYP1A; 10 µM NVP): 827.9 ± 13.6 pmol/min/mg protein | EROD enzyme activity (CYP1A; 100 µM NVP): 858.9 ± 33.9 pmol/min/mg protein | Inhibition of EROD activity (CYP1A; 1, 10 or 100 µM NVP): does not lead to inhibition | Cyanide-insensitive palmitoyl CoA oxidase activity in liver cytosol ([4]; 5 ppm): 5.43 ± 0.71 nmol/min/mg protein | Cyanide-insensitive palmitoyl CoA oxidase activity in liver cytosol ([4]; 10 ppm): 5.47 ± 0.71 nmol/min/mg protein | Cyanide-insensitive palmitoyl CoA oxidase activity in liver cytosol ([4]; 20 ppm, statistically significantly reduced): 4.68 ± 0.71 nmol/min/mg protein | Cytotoxicity in MTT assay (rat hepatocytes): no cytotoxicity observed | BALB/3T3 cell transformation test result (BALB/3T3 cells): negative | Individual viability (%) (rat lung cells; female, Comet with FPG (Table 11), 20 ppm inhalation): 95% | Individual viability (%) (rat lung cells; female, no FPG, 20 ppm inhalation): 96% | Individual viability (%) (rat lung cells; male, Comet with FPG (Table 10), 10 ppm inhalation): 93% | Individual viability (%) (rat lung cells; [5]): 93%
